Values joined by “and” are separate entries in the source; they are usually repeats but may differ in a detail not shown here. Equal values may be shown once. “Also recorded” adds a separate entry of the source. Read-outs that look alike come from different tables or passages of the source.
Legend:
tumor [1] = conditions: mice, 0.05 to 0.3 mg/kg, 135 Joules/cm^2; cited from earlier work
dogs = conditions: cited from earlier work
normal skin tissue = experiment: Adverse effects for normal skin tissue exposed to 133 Joules/cm^2; assay type: in vivo, human; design: key: 1: faint erythema; 2: minimal erythema with sharp borders; 3: pronounced erythema without edema; 6: more than 10% of toxic dose causing peripheral neuropathy in animals; conditions: normal skin exposed to 133 Joules/cm^2
Description: Adverse effects for normal skin tissue when exposed to 133 Joules/cm^2 (approximately equivalent to 30 minutes of midday sun exposure in Northeastern United States): 1=faint erythema; 2=minimal erythema with sharp borders; 3=pronounced erythema without edema; 6- more than 10% of toxic dose causing peripheral neuropathy in animals.

[2] = system: high grade dysplasia-carcinoma in Barrett's Esophagus; experiment: HPPH PDT of high grade dysplasia-carcinoma in Barrett's Esophagus; assay type: in vivo, human
Source text: Use of HPPH Photodynamic Therapy for treatment of high grade dysplasia-carcinoma in Barrett's Esophagus. All energy was at 175 Joules/cm at 665±5 nm Light Energy 48 HRS Post Injection. This was a single treatment. Based on studies with PHOTOFRIN®, it is expected that three treatments, instead of just one, would result in about an 77% cure rate.

bronchiogenic carcinoma = experiment: Interluminal HPPH-PDT treatment of bronchiogenic carcinoma; assay type: in vivo, human; conditions: 0.1 mg/kg, 75-85 J/cm, 48 HRS post injection
Source text: Dosages are in Joules per cm length of light delivering optical fiber.

basal cell carcinoma = experiment: Photodynamic therapy for treatment of basal cell carcinoma using HPPH; assay type: in vivo, human
Source text: Table 1 gives results of a study of Photodynamic Therapy for the treatment of basal cell carcinoma using 2-(1-hexyloxyethyl)-2-devinyl pyropheophorbide-a (HPPH).
All dose data converted from actual drug dose in milligrams per square meter of surface area of patient assuming a 70 kg patient having a 2 m^2 surface area.

[3] = system: advanced obstructive endobronchial lung cancer; experiment: Palliative treatment of advanced obstructive endobronchial lung cancer; assay type: in vivo, human; conditions: 0.1 mg/kg; for 2 Month FU response (patients) / Long Term FU outcome (patients): 48 HRS post injection
Description: Palliative Treatment of Advanced Obstructive Endobronchial Lung Cancer For relief in breathing only. Long term responses not expected due to most patients having wide spread disease outside of the area treated by HPPH in the Bronchus. All HPPH doses were 0.1 mg/kg with exposure of 100 to 140 Joules per cm of diffusion fiber at 665±5 nm Light Energy 48 HRS Post Injection.

skin = conditions: cited from earlier work
tumor [4] = conditions: of body weight; cited from earlier work
[5] = 0.075 mg/kg, 175 Joules/cm, 48 HRS post injection, single treatment

CCCCCCOC(C)c1c(C)c2cc3nc(c4c5[nH]c(cc6nc(cc1[nH]2)C(C)=C6CC)c(C)c5C(=O)C4)C(CCC(=O)O)C3C (stereo not drawn) [HPPH, 2-(1-hexyloxy)-2-ethyl-derivative of pyropheophorbide-a]
Long term tumor response (tumor [1]): no or extremely little long term tumor response
Toxicity finding at lowest toxic dose (dogs; about 1.5 mg/kg in 0.1% Tween 80, test animals, toxicity said due to surfactant): neuropathy is common
Lowest toxic dose (dogs; in 0.1% Tween 80 (polysorbate 80) surfactant solution, dogs): about 1.5 mg/kg
Adverse Effects Noted (normal skin tissue; 0.05 mg/kg* (interpolated from 48 hr data)): 1
Adverse Effects Noted (normal skin tissue; 0.07 mg/kg* (interpolated from 48 hr data)): 1
Adverse Effects Noted (normal skin tissue; 0.07 mg/kg): 1
Adverse Effects Noted (normal skin tissue; 0.09 mg/kg): 1
Adverse Effects Noted (normal skin tissue; 0.12 mg/kg* control (interpolated from 48 hr data)): 3 and 2
Adverse Effects Noted (normal skin tissue; 0.17 mg/kg control): 3-6 and 2-6
2 mo/FU response (patients) [2, 5]: 3 PR/2 CR
Long Term/FU response (patients) [2, 5]: 3 PR/2 CR
2 mo/FU response (patients) ([2]; 0.1 mg/kg, 175 Joules/cm, 48 HRS post injection, single treatment): 4 PR/3 CR
Expected cure rate ([2]; three treatments instead of one, expected based on studies with PHOTOFRIN): ~77%
Systemic or phototoxic side effects (bronchiogenic carcinoma): No observable systemic or phototoxic side effects
Result of treatment of basal cell carcinoma (basal cell carcinoma; 0.05 mg/kg*, 150 J/cm^2 @24 hr*, interpolated from 48 hr data): Complete
Result of treatment of basal cell carcinoma (basal cell carcinoma; 0.05 mg/kg*, 200 J/cm^2 @24 hr*, interpolated from 48 hr data): Complete
Result of treatment of basal cell carcinoma (basal cell carcinoma; 0.07 mg/kg*, 150 J/cm^2 @24 hr*, interpolated from 48 hr data): Complete
Result of treatment of basal cell carcinoma (basal cell carcinoma; 0.07 mg/kg*, 200 J/cm^2 @24 hr*, interpolated from 48 hr data): Complete
Result of treatment of basal cell carcinoma (basal cell carcinoma; 0.07 mg/kg, 50 J/cm^2 @24 hr): Fail and Partial and Complete
Result of treatment of basal cell carcinoma (basal cell carcinoma; 0.07 mg/kg, 100 J/cm^2 @24 hr): Complete
Result of treatment of basal cell carcinoma (basal cell carcinoma; 0.07 mg/kg, 150 J/cm^2 @48 hr): Complete
Result of treatment of basal cell carcinoma (basal cell carcinoma; 0.07 mg/kg, 200 J/cm^2 @48 hr): Complete
Result of treatment of basal cell carcinoma (basal cell carcinoma; 0.09 mg/kg, 50 J/cm^2 @24 hr): Partial; also recorded: Complete
Result of treatment of basal cell carcinoma (basal cell carcinoma; 0.09 mg/kg, 100 J/cm^2 @24 hr): Complete; also recorded: Partial
Result of treatment of basal cell carcinoma (basal cell carcinoma; 0.09 mg/kg, 150 J/cm^2 @48 hr): Complete
Result of treatment of basal cell carcinoma (basal cell carcinoma; 0.09 mg/kg, 200 J/cm^2 @48 hr): Complete
2 Month FU response (patients) ([3]; 100 J/cm): 1 CR/2 PR
Long Term FU outcome (patients) ([3]; 100 J/cm): 1 disease
Outcome upon long term follow up ([3]; 100 to 140 Joules per cm): one was disease free
Systemic or phototoxic side effects ([3]; 100 to 140 Joules per cm): No observable systemic or phototoxic side effects
2 Month FU response (patients) ([3]; 110 J/cm): 3 PR
2 Month FU response (patients) ([3]; 130 J/cm): 2 CR/1 PR
Long Term FU outcome (patients) ([3]; 130 J/cm): 2 new
2 Month FU response (patients) ([3]; 140 J/cm): 1 CR
Long Term FU outcome (patients) ([3]; 140 J/cm): 1 new
Palliative response (improved ability to breathe) ([3]; all cases, 100 to 140 Joules per cm): at least partial palliative response

Oc1cccc(-c2c3nc(c(-c4cccc(O)c4)c4ccc([nH]4)c(-c4cccc(O)c4)c4nc(c(-c5cccc(O)c5)c5ccc2[nH]5)CC4)C=C3)c1 [FOSCAN]
Reported phototoxicity (skin; 30 minute sun exposure a full week after injection): serious erythema

porfimer sodium [PHOTOFRIN]
Reported phototoxicity (skin; 2 mg/kg dose, exposure to only 9 Joules/cm^2 of activating light): very serious erythema and necrosis
Lowest reasonable effective dose / required dose (tumor [4]): 2 mg/kg
